# System: human Cav3.1 Cav3.2 or Cav3.3 channel
# Experiment: In vitro assay T channel (FLIPR calcium fluorescence)
# Type: cell-based
# Settings: HEK293 cells expressing human Cav3.1, Cav3.2 or Cav3.3; 10 mM Ca2+-induced fluo-4 fluorescence; determined up to 10 μM; read-out: T channel antagonistic activity IC50
# Outline: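 IC50 (nM) is the antagonist concentration halving the area under the fluorescence peak evoked by 10 mM Ca2+, relative to vehicle, with testing up to 10 μM. Fluo-4-loaded HEK293 cells expressing each human Cav3 subtype received compound 3 min before Ca2+ addition (TEA-based buffer, pH 7.2); signal monitored 8 min at 2 s intervals.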
row,IC50 [nM],SMILES
1,> 10000,"COc1ccc2[nH]c(CCCN(C)CC[C@]3(O)C[C@H]4CC[C@@H]3C=C4c3ccccc3)nc2c1 (relative stereo) [Example 29, rac-(1R*,2R*,4R*)-2-(2-{[3-(5-Methoxy-1H-benzoimidazol-2-yl)-propyl]-methyl-amino}-ethyl)-5-phenyl-bicyclo[2.2.2]oct-5-en-2-ol]"
2,2990,"CC(C)Oc1cccc2nc(CCCN(C)CC[C@]3(O)C[C@H]4CC[C@@H]3C=C4c3ccccc3)[nH]c12 (relative stereo) [Example 33, rac-(1R*,2R*,4R*)-2-(2-{[3-(7-Isopropoxy-1H-benzoimidazol-2-yl)-propyl]-methyl-amino}-ethyl)-5-phenyl-bicyclo[2.2.2]oct-5-en-2-ol]"
3,4850,"Cc1ccc(C2=C[C@H]3CC[C@@H]2C[C@@]3(O)CCN(C)CCCc2nc3ccccc3[nH]2)cc1 (relative stereo) [Example 6, rac-(1R*,2R*,4R*)-2-(2-{[3-(1H-Benzoimidazol-2-yl)-propyl]-methyl-amino}-ethyl)-5-(4-methyl-phenyl)-bicyclo[2.2.2]oct-5-en-2-ol]"
4,3310,"COc1ccccc1C1=CC2CCC1CC2(O)CCN(C)CCCc1nc2ccccc2[nH]1 (racemic) [Example 23, rac-(1R*,2R*,4R*)-2-(2-{[3-(1H-Benzoimidazol-2-yl)-propyl]-methyl-amino}-ethyl)-5-(2-methoxy-phenyl)-2-yl-bicyclo[2.2.2]oct-5-en-2-ol]"
5,1480,"COc1cccc2nc(CCN(C)CC[C@]3(O)C[C@H]4CC[C@@H]3C=C4c3ccccc3)[nH]c12 (relative stereo) [Example 32, rac-(1R*,2R*,4R*)-2-(2-{[2-(7-Methoxy-1H-benzoimidazol-2-yl)-ethyl]-methyl-amino}-ethyl)-5-phenyl-bicyclo[2.2.2]oct-5-en-2-ol]"
6,> 10000,"CN(CCCc1nc2ccccc2[nH]1)CCC1(O)CC2CCC1C=C2c1ccccc1 (single isomer, unassigned) [Example 12, (1R,2R,4R)-2-(2-{[3-(1H-Benzoimidazol-2-yl)-propyl]-methyl-amino}-ethyl)-5-phenyl-bicyclo[2.2.2]oct-5-en-2-ol or (1S,2S,4S)-2-(2-{[3-(1H-benzoimidazol-2-yl)-propyl]-methyl-amino}-ethyl)-5-phenyl-bicyclo[2.2.2]oct-5-en-2-ol]"
7,1790,"CN(CCCc1nc2ccccc2[nH]1)CC[C@]1(O)C[C@H]2CC[C@@H]1C=C2c1ccc(F)cc1 (relative stereo) [Example 8, rac-(1R*,2R*,4R*)-2-(2-{[3-(1H-Benzoimidazol-2-yl)-propyl]-methyl-amino}-ethyl)-5-(4-fluoro-phenyl)-bicyclo[2.2.2]oct-5-en-2-ol]"
8,3390,"COc1cccc2nc(CCN(C)CC[C@]3(OC(=O)C(C)C)C[C@H]4CC[C@@H]3C=C4c3ccccc3)[nH]c12 (relative stereo) [Example 32A, rac-Isobutyric acid (1R*,2R*,4R*)-2-(2-{[2-(7-methoxy-1H-benzoimidazol-2-yl)-ethyl]-methyl-amino}-ethyl)-5-phenyl-bicyclo[2.2.2]oct-5-en-2-yl ester]"

# More lines, now with the values behind:
row,SMILES,IC50 [nM]
1,"CN(CCCc1ccnc2ccccc12)CC[C@]1(O)C[C@H]2CC[C@@H]1C=C2c1ccccc1 (relative stereo) [Example 50, rac-(1R*,2R*,4R*)-2-{2-[Methyl-(3-quinolin-4-yl-propyl)-amino]-ethyl}-5-phenyl-bicyclo[2.2.2]oct-5-en-2-ol]",> 10000
2,"CC(C)C(=O)O[C@@]1(CCN(C)CCCc2nc3ccccc3[nH]2)C[C@H]2CC[C@@H]1C=C2c1ccc(F)cc1 (relative stereo) [Example 8A, rac-Isobutyric acid (1R*,2R*,4R*)-2-(2-{[3-(1H-benzoimidazol-2-yl)-propyl]-methyl-amino}-ethyl)-5-(4-fluoro-phenyl)-bicyclo[2.2.2]oct-5-en-2-yl ester]",1630
3,"COc1ccc(CCCN(C)CC[C@]2(O)C[C@H]3CC[C@@H]2C=C3c2ccccc2)cc1OC (relative stereo) [Example 39, rac-(1R*,2R*,4R*)-2-(2-{[3-(3,4-Dimethoxy-phenyl)-propyl]-methyl-amino}-ethyl)-5-phenyl-bicyclo[2.2.2]oct-5-en-2-ol]",> 10000
4,"Cc1ccc(C2=C[C@H]3CC[C@@H]2C[C@]3(CCN(C)CCCc2nc3ccccc3[nH]2)OC(=O)C(C)C)cc1 (relative stereo) [Example 6A, rac-Isobutyric acid (1R*,2R*,4R*)-2-(2-{[3-(1H-benzoimidazol-2-yl)-propyl]-methyl-amino}-ethyl)-5-(4-methyl-phenyl)-bicyclo[2.2.2]oct-5-en-2-yl ester]",6830
5,"COCC(C)(COC)C(=O)N(C)CCCN(C)CC[C@]1(O)C[C@H]2CC[C@@H]1C=C2c1ccccc1 (relative stereo) [Example 51, rac-N-(3-{[2-((1R*,2R*,4R*)-2-Hydroxy-5-phenyl-bicyclo[2.2.2]oct-5-en-2-yl)-ethyl]-methyl-amino}-propyl)-3-methoxy-2-methoxymethyl-2,N-dimethyl-propionamide]",> 10000
6,"COc1ccc(CCCN(C)CC[C@]2(OC(=O)C(C)C)C[C@H]3CC[C@@H]2C=C3c2ccccc2)cc1OC (relative stereo) [Example 39A, rac-Isobutyric acid (1R*,2R*,4R*)-2-(2-{[3-(3,4-dimethoxy-phenyl)-propyl]-methyl-amino}-ethyl)-5-phenyl-bicyclo[2.2.2]oct-5-en-2-yl ester]",7490
7,"CC(C)C(=O)O[C@@]1(CCN(C)CCCc2nc3cc(Cl)c(Cl)cc3[nH]2)C[C@H]2CC[C@@H]1C=C2c1ccccc1 (relative stereo) [Example 27A, rac-Isobutyric acid (1R*,2R*,4R*)-2-(2-{[3-(5,6-dichloro-1H-benzoimidazol-2-yl)-propyl]-methyl-amino}-ethyl)-5-phenyl-bicyclo[2.2.2]oct-5-en-2-yl ester]",6740
8,"CC(C)C(=O)O[C@@]1(CCN(C)CCCc2nc3c(OC(F)(F)F)cccc3[nH]2)C[C@H]2CC[C@@H]1C=C2c1ccccc1 (relative stereo) [Example 68A, rac-Isobutyric acid (1R*,2R*,4R*)-2-(2-{methyl-[3-(4-trifluoromethoxy-1H-benzoimidazol-2-yl)-propyl]-amino}-ethyl)-5-phenyl-bicyclo[2.2.2]oct-5-en-2-yl ester]",839
9,"COc1ccccc1-c1cnc(CCCN(C)CC[C@]2(OC(=O)C(C)C)C[C@H]3CC[C@@H]2C=C3c2ccccc2)[nH]1 (relative stereo) [Example 72A, rac-Isobutyric acid (1R*,2R*,4R*)-2-[2-({3-[5-(2-methoxy-phenyl)-1H-imidazol-2-yl]-propyl}-methyl-amino)-ethyl]-5-phenyl-bicyclo[2.2.2]oct-5-en-2-yl ester]",2290
10,"CC(C)C(=O)O[C@@]1(CCN(C)CCCc2nc3ccccc3[nH]2)C[C@H]2CC[C@@H]1C=C2c1cccc(F)c1 (relative stereo) [Example 7A, rac-Isobutyric acid (1R*,2R*,4R*)-2-(2-{[3-(1H-benzoimidazol-2-yl)-propyl]-methyl-amino}-ethyl)-5-(3-fluoro-phenyl)-bicyclo[2.2.2]oct-5-en-2-yl ester]",3140
11,"COc1cc(OC)c2nc(CCCN(C)CC[C@]3(OC(=O)C(C)C)C[C@H]4CC[C@@H]3C=C4c3ccccc3)[nH]c2c1 (relative stereo) [Example 59A, rac-Isobutyric acid (1R*,2R*,4R*)-2-(2-{[3-(4,6-dimethoxy-1H-benzoimidazol-2-yl)-propyl]-methyl-amino}-ethyl)-5-phenyl-bicyclo[2.2.2]oct-5-en-2-yl ester]",952
12,"CC(C)C(=O)OC1(CCN(C)CCCc2nc3ccccc3[nH]2)CC2CCC1C1=C2CCc2ccccc21 (racemic) [Example 18A, rac-Isobutyric acid (1R*,3R*,4R*)-1,2,3,4,9,10-hexahydro-3-hydroxy-3-{N-methyl-N-(3-benzimidazol-2-ylpropyl)aminoethyl}-1,4-ethanophenanthrene ester]",2050
13,"COCC(C)(COC)C(=O)NCCCN(C)CC[C@]1(OC(=O)C(C)C)C[C@H]2CC[C@@H]1C=C2c1ccccc1 (relative stereo) [Example 43A, rac-Isobutyric acid (1R*,2R*,4R*)-2-(2-{[3-(3-methoxy-2-methoxymethyl-2-methyl-propionylamino)-propyl]-methyl-amino}-ethyl)-5-phenyl-bicyclo[2.2.2]oct-5-en-2-yl ester]",2710
14,"COCCOc1cccc2[nH]c(CCCN(C)CC[C@]3(OC(=O)C(C)C)C[C@H]4CC[C@@H]3C=C4c3ccccc3)nc12 (relative stereo) [Example 63A, rac-Isobutyric acid (1R*,2R*,4R*)-2-[2-({3-[4-(2-methoxy-ethoxy)-1H-benzoimidazol-2-yl]-propyl}-methyl-amino)-ethyl]-5-phenyl-bicyclo[2.2.2]oct-5-en-2-yl ester]",1440
15,"COc1cccc2[nH]c(CCCN(C)CC[C@]3(OC(=O)OC(C)C)C[C@H]4CC[C@@H]3C=C4c3ccccc3)nc12 (relative stereo) [Example 26G, rac-Carbonic acid isopropyl ester (1R*,2R*,4R*)-2-(2-{[3-(4-methoxy-1H-benzoimidazol-2-yl)-propyl]-methyl-amino}-ethyl)-5-phenyl-bicyclo[2.2.2]oct-5-en-2-yl ester]",935
16,"COc1cc2nc(CCCN(C)CC[C@]3(OC(=O)C(C)C)C[C@H]4CC[C@@H]3C=C4c3ccccc3)[nH]c2cc1OC (relative stereo) [Example 28A, rac-Isobutyric acid (1R*,2R*,4R*)-2-(2-{[3-(5,6-dimethoxy-1H-benzoimidazol-2-yl)-propyl]-methyl-amino}-ethyl)-5-phenyl-bicyclo[2.2.2]oct-5-en-2-yl ester]",3460

# Reference: US8202885B2, “Bridged six-membered ring compounds” (Actelion Pharmaceuticals Ltd., priority 2007, dated 2012)
